Data on 1 substance can be found in patent publication US20090238852A1, “METHODS FOR CONTROLLING INTRACELLULAR CALCIUM LEVELS ASSOCIATED WITH AN ISCHEMIC EVENT” (University of Utah Research Foundation, priority 2008, published 2009).

Usually Vdss stands for the apparent volume that relates the amount in the body to the concentration in plasma or blood. The low end stands for confinement near the circulation, the high end for extensive tissue distribution.

For data set [1], the system named is anti-coagulant activity (USP). The settings on record: product of the procedure of U.S. Pat. No. 5,990,097; cited from earlier work.
Data set [2] has as its system rabbit ventricular myocytes. Kind of data set: [Na^+]i in paced myocytes exposed to ATX, no metabolic inhibition. It counts as cell-based. The settings on record: FIG. 9. As to the method: In these studies, intracellular calcium concentration [Ca^++]i was measured by flow cytometry. Measurement of isolated mouse and rabbit ventricular myocyte [Ca^2+]i and [Na^+]i by flow cytometry has been described (Zhang et al., J. Cardiovasc. Pharmacol. 51: 443-449 (2008); Li et al., J. Mol. Cell. Cardiol. 33: 2145-2155 (2001)). [Ca^++]i was measured with the Ca^++ sensitive fluorescent probe, Fluo 3-AM (Molecular Probes, Eugene, Oreg.), using a FACScan (Becton-Dickinson, MA). The cells were exposed to 4 μmol/L Fluo-3 AM for 30 min at 37° C. The cells were then separated into aliquots. […] Metabolic ischemia was accomplished by incubating cells in a glucose-free MKRBB solution (pH 7.40) containing 2 mmol/L sodium cyanide (NaCN) to impair mitochondrial and glycolytic generation of ATP. To reproduce the situation in the beating ischemic heart, during the period of metabolic ischemia, myocytes were placed in a 5-well chamber with equal volumes of myocyte suspensions from the same heart dissociation placed in each well. The chamber was water bathed to maintain temperature at 37° C. and bubbled with 5% CO2 in air to keep myocytes in suspension. Each well was fitted with platinum sheet electrodes on both sides for field stimulation. One chamber was constructed with a glass coverslip bottom so that myocytes can be observed microscopically to assess capture threshold. Placing electrodes were connected in series to a constant current pulse generator that delivers a 0.2 ampere pulse at 0.5 Hz. […] Approximately 2×10^3 myocytes were analyzed to calculate average emission fluorescence intensity in each sample. […] Only those cells with low fluorescence intensity at 670 nm (PI-negative cells or viable cells) were included in the comparative analysis of [Ca^++]i. The sample [Ca^2+]i values were calculated by Mn^2+ quenching (Sugishita et al, 2001) and [Na^+]i values by comparison with a standard curve of varied [Na^+]i versus Na Green fluorescence. […] Results were expressed as means±SEM. […]

The subject of the next data set is NCX. Nature of the data set: NCX current (INCX) voltage clamp in intact isolated ventricular myocytes. It counts as cell-based, rabbit. The settings on record: ODSH 100 μg/ml; approximately −60 mV to +50 mV; n = 5; FIG. 7. An excerpt:
The direct effects of ODSH on NCX were further measured by means of voltage clamp studies in intact isolated rabbit ventricular myocytes. […] This finding was initially surprising but is consistent with a previous report that heparin and heparan sulfate disaccharides can stimulate Ca^2+ extrusion by NCX in smooth muscle cell lines (Shinjo et al, 2002). […] We therefore studied the effects of ODSH on Na^+ loading.

The test system of data set [3] is blood coagulation (aPTT, ACT). Kind of data set: Phase I bolus plus 12 hour infusion study: coagulation tests (aPTT, ACT). It counts as in vivo, human. The settings on record: all dosing regimens; FIG. 20.
Method: A study was performed in twenty-four (24) healthy adult subjects to assess the effects of a bolus dose and 12 hour infusion of 2-O, 3-O desulfated heparin. The study was a Phase I, randomized, double-blind, dose escalation study with single-day treatment periods. Subjects were males between the ages of 18 and 45, and were normal in body weight. They all had normal coagulation function and hemoglobin values at baseline. […] Eighteen (18) subjects were randomized to receive ODSH and six (6) subjects were randomized to receive placebo. Subjects received either ODSH or placebo as described below in Table 13.
For each subject, ODSH as a 50 mg/ml formulation was diluted with normal saline and administered as a bolus infused over 15 minutes containing the calculated amount of ODSH the subject was to receive, followed by a constant infusion for 12 hours of ODSH diluted in saline. Placebo consisted of 50 mL of normal saline infused over 15 minutes, followed by normal saline infused for 12 hours. Immediately before infusion and after the start of each infusion, blood was drawn at periodic times (over a total 24 hour period) to monitor the effect of infusion on the following laboratory studies: activated partial thromboplastin time (aPTT); prothrombin time (PT); activated clotting time (ACT); and ODSH plasma level.
The conditions of data set [4]: human, in vivo.
Method: A study was performed in eight (8) healthy adult male and female subjects to assess the effects of a bolus dose and 72 hour infusion of 2-O, 3-O desulfated heparin. The study was a Phase I study with a three day treatment period. Doses were adjusted to maintain an aPTT level of 40-45 seconds. Subjects were between the ages of 18 and 60, were not pregnant, and were normal in body weight. They all had normal coagulation function and hemoglobin values at baseline.
Subjects received an initial bolus of 8 mg/kg of ODSH over 15 minutes, followed by 72 hours continuous infusion beginning at 0.58 mg/kg/hr. For each subject ODSH as a 50 mg/ml formulation was diluted with normal saline and administered as a bolus infused over 15 minutes containing the calculated amount of ODSH the subject was to receive, followed by infusion of ODSH diluted in saline. The infusion dose was adjusted to maintain an aPTT of 40-45 seconds. Immediately before infusion and after the start of each infusion, blood was drawn at periodic times (over a total 72 hour period) to monitor the effect of infusion on the following laboratory studies: activated partial thromboplastin time (aPTT), prothrombin time (PT), activated clotting time (ACT), and ODSH plasma level. Serum chemistries and a complete blood count were checked immediately before infusion and again periodically for up to 240 hours later. Using values for aPTT and ODSH levels, pharmacokinetic parameters were calculated by noncompartmental methods using a commercial software program (PhAST 2.3-001). The following pharmacokinetic parameters were calculated as above: Cmax; Kel; tmax; AUC O-t; AUCinf, t1/2; CL; and Vdss.

With 2-O, 3-O desulfated heparin [ODSH], in data set [1], the anti-coagulant activity entry is “less than 10 USP units/mg”. Besides, the “effect on ATX-induced increase in [Na^+]i” value in data set [2] (ODSH 100 ug/ml with ATX 10 nM) is “almost completely inhibited”. Moreover, the “effect on [Na^+]i in the absence of ATX” value in data set [2] (ODSH 100 ug/ml, HEPES + pacing alone) is “reduced [Na^+]i in myocytes in the absence of ATX but to a much smaller extent”. For the same substance, the “effect on NCX current (INCX)” value in the data set on NCX is reported as “significant stimulation of exchange”. Moreover, in data set [3], the ACT increases entry is given as “ACT increases providing adequate therapeutic anticoagulation necessary for the cardiac catheterization laboratory were observed in all dosing regimens”. Besides, in data set [4], the CL was found to be 0.17 mL/min/kg, the Vdss stood at 0.0489 L/kg, the t1/2 is on record as 3.3 h and the tmax was 0.5 h. For the same substance, in data set [4] (8 mg/kg), the “AUC, range across subjects” value is 3,528-4,694 μg hr/mL; the “CL, range across subjects” value was 0.147 to 0.197 mL/min/kg; the “Cmax, range across subjects” value was 131 to 192 µg/mL; the “Vdss, range across subjects” value lay within 0.0237 to 0.0662 L/kg. Besides, the “t1/2, range across subjects” value in data set [4] (8 mg/kg) was 1.9 to 4.4 h.
